Experimental data reported in patent US20240018161A1, “MODULATORS OF CYSTIC FIBROSIS TRANSMEMBRANE CONDUCTANCE REGULATOR” (VERTEX PHARMACEUTICALS INCORPORATED, priority 2020, published 2024).

Biological target: CFTR-mediated chloride transport in human intestinal epithelial enteroid cells (Homo sapiens, UniProt P13569)
Assay: Membrane potential dye, Enteroid Assay A
Type: cell-based
Settings: for Ent. A Max Activity (%): percentage of chloride transport of triple combination control (3 μM N-[(6-amino-2-pyridyl)sulfonyl]-6-(3-fluoro-5-isobutoxy-phenyl)-2-[(4S)-2,2,4-trimethylpyrrolidin-1-yl]pyridine-3-carboxamide based); for EC50: enteroid cells incubated with test compound 18-24 hours, acute 10 μM forskolin and 300 nM N-[2,4-bis(1,1-dimethylethyl)-5-hydroxyphenyl]-1,4-dihydro-4-oxoquinoline-3-carboxamide, read-out: Ent. A EC50
Method in brief: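 Membrane potential dye (20 μM methyl oxonol, with 30 μM CaCCinh-A01 and 30 μM Chicago Sky Blue) loaded 25 min at room temperature into ROCK-inhibitor-seeded human enteroid cells. Chloride-free stimulation buffer triggered transport, followed by 15 min fluorescence. % Activity relative to 3 μM/3 μM/300 nM triple-combination control.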

Sequence of CFTR-mediated chloride transport in human intestinal epithelial enteroid cells (P13569 with tags, fused parts or gaps DEL508-508): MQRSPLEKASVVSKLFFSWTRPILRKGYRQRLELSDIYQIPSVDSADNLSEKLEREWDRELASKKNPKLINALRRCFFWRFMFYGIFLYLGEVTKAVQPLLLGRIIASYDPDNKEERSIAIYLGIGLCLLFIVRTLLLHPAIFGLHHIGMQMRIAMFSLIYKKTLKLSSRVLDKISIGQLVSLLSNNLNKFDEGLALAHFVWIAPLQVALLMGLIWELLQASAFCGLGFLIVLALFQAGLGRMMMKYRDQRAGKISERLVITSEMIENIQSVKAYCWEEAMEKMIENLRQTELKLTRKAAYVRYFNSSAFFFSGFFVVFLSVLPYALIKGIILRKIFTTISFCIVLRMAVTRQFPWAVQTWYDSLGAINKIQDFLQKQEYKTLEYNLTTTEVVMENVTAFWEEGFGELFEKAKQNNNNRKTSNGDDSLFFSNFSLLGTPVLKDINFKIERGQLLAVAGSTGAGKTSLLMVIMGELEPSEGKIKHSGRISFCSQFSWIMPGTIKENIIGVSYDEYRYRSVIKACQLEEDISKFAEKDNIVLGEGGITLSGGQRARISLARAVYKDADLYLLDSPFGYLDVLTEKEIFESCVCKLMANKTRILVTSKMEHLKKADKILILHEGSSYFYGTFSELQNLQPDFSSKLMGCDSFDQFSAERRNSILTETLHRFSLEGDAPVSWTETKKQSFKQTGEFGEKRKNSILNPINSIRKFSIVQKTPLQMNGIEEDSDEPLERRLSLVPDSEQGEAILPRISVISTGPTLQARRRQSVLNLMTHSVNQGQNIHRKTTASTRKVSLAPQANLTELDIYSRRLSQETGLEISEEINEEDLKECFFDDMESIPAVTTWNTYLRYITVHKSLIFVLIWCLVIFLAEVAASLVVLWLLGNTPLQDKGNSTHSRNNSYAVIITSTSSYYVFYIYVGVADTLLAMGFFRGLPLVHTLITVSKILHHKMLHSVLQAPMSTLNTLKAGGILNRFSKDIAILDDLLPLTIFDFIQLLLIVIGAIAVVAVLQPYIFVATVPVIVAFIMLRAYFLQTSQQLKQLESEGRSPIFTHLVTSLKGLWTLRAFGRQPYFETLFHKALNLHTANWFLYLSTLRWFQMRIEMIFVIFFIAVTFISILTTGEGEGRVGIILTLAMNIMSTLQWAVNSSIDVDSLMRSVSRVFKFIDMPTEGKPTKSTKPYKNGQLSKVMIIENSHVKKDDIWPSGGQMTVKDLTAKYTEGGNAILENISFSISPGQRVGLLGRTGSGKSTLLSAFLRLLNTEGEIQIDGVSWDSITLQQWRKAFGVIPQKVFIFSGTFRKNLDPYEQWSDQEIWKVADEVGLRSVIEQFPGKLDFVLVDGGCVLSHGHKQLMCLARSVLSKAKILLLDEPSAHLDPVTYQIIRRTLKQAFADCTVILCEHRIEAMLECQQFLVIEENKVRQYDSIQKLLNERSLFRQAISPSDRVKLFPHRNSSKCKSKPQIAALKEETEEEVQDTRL

SMILES	EC50 [µM]	Ent. A Max Activity (%)
Cc1cccc(C)c1-c1cc2nc(n1)NS(=O)(=O)c1cccc(c1)C1CCCCN1C(CC(C)C)CO2 (stereo not shown) [Compound 253]		+ (+ is <300%)
Cc1cccc(C)c1-c1cc2nc(n1)NS(=O)(=O)c1cccc(c1)C(=O)N1CC(C)(C)OCC1CO2 (stereo not shown) [Compound 254]	1 to 3	++ (++ is 30-60%)
Cc1cccc(C)c1-c1cc2nc(n1)NS(=O)(=O)c1cccc(c1)C(=O)N1CCN(C(=O)CC3CCCCC3)C[C@@H]1CO2 [Compound 255]	< 1	++ (++ is 30-60%)
Cc1cccc(C)c1-c1cc2nc(n1)NS(=O)(=O)c1cccc(c1)C(=O)N1CCN(CC3CCOC(C)(C)C3)C[C@@H]1CO2 (stereo partly shown) [Compound 256]	< 1	+++ (+++ is >60%)
Cc1cccc(C)c1-c1cc2nc(n1)NS(=O)(=O)c1cccc(c1)C(=O)N1CCN(CC3(NC(=O)OC(C)(C)C)CCCC3)C[C@@H]1CO2 [Compound 257]	< 1	+++ (+++ is >60%)
Cc1cccc(C)c1-c1cc2nc(n1)NS(=O)(=O)c1cccc(c1)C(=O)N1CCN(C(=O)N3CCCCC3)C[C@@H]1CO2 [Compound 258]	3 to 30	++ (++ is 30-60%)
CCC(CC)CN1CCN2C(=O)c3cccc(c3)S(=O)(=O)Nc3nc(cc(-c4c(C)cccc4C)n3)OC[C@H]2C1 [Compound 259]	< 1	+++ (+++ is >60%)
Cc1cccc(C)c1-c1cc2nc(n1)NS(=O)(=O)c1cccc(c1)C(=O)N1CCN(CC3CCCC3)C[C@@H]1CO2 [Compound 260]	< 1	+++ (+++ is >60%)
Cc1cccc(C)c1-c1cc2nc(n1)NS(=O)(=O)c1cccc(c1)C(=O)N1CCN(CC3(C)COC3)C[C@@H]1CO2 [Compound 261]		+ (+ is <300%)
Cc1cccc(C)c1-c1cc2nc(n1)NS(=O)(=O)c1cccc(c1)C(=O)N1CCN(CC3CC3)C[C@@H]1CO2 [Compound 262]	3 to 30	+++ (+++ is >60%)
Cc1cccc(C)c1-c1cc2nc(n1)NS(=O)(=O)c1cccc(c1)C(=O)N1CCN(CCC3CCOCC3)C[C@@H]1CO2 [Compound 263]	3 to 30	++ (++ is 30-60%)
Cc1cccc(C)c1-c1cc2nc(n1)NS(=O)(=O)c1cccc(c1)C(=O)N1CCN(Cc3cnn(C(C)C)c3)C[C@@H]1CO2 [Compound 264]		++ (++ is 30-60%)
CNc1ccc(CN2CCN3C(=O)c4cccc(c4)S(=O)(=O)Nc4nc(cc(-c5c(C)cccc5C)n4)OC[C@H]3C2)cn1 [Compound 265]	3 to 30	++ (++ is 30-60%)
Cc1cccc(C)c1-c1cc2nc(n1)NS(=O)(=O)c1cccc(c1)C(=O)N1CCN(Cc3ccccc3C#N)C[C@@H]1CO2 [Compound 266]	3 to 30	+++ (+++ is >60%)
Cc1cccc(C)c1-c1cc2nc(n1)NS(=O)(=O)c1cccc(c1)C(=O)N1CCN(Cc3cccc(C#N)c3)C[C@@H]1CO2 [Compound 267]	1 to 3	+++ (+++ is >60%)
Cc1cccc(C)c1-c1cc2nc(n1)NS(=O)(=O)c1cccc(c1)C(=O)N1CCN(Cc3cn(C)nc3C)C[C@@H]1CO2 [Compound 276]		++ (++ is 30-60%)
Cc1cccc(C)c1-c1cc2nc(n1)NS(=O)(=O)c1cccc(c1)C(=O)N1CCN(Cc3ccc[nH]c3=O)C[C@@H]1CO2 [Compound 277]		+ (+ is <300%)

SMILES	EC50 [µM]	Ent. A Max Activity (%)
Cc1cccc(C)c1-c1cc2nc(n1)NS(=O)(=O)c1cccc(c1)C(=O)N1CCN(Cc3cncn3C)C[C@@H]1CO2 [Compound 279]		+ (+ is <300%)
Cc1cccc(C)c1-c1cc2nc(n1)NS(=O)(=O)c1cccc(c1)C(=O)N1CCN(Cc3ccncc3)C[C@@H]1CO2 [Compound 280]		++ (++ is 30-60%)
Cc1cccc(C)c1-c1cc2nc(n1)NS(=O)(=O)c1cccc(c1)C(=O)N1CCN(Cc3ccccn3)C[C@@H]1CO2 [Compound 281]		++ (++ is 30-60%)
Cc1cccc(C)c1-c1cc2nc(n1)NS(=O)(=O)c1cccc(c1)C(=O)N1CCN(Cc3cocn3)C[C@@H]1CO2 [Compound 283]		++ (++ is 30-60%)
Cc1cccc(C)c1-c1cc2nc(n1)NS(=O)(=O)c1cccc(c1)C(=O)N1CCN(Cc3c[nH]cn3)C[C@@H]1CO2 [Compound 284]		+ (+ is <300%)
Cc1cccc(C)c1-c1cc2nc(n1)NS(=O)(=O)c1cccc(c1)C(=O)N1CCN(Cc3ccn(C)n3)C[C@@H]1CO2 [Compound 285]		++ (++ is 30-60%)
Cc1cccc(C)c1-c1cc2nc(n1)NS(=O)(=O)c1cccc(c1)C(=O)N1CCN(Cc3ncccn3)C[C@@H]1CO2 [Compound 286]		+ (+ is <300%)
Cc1cccc(C)c1-c1cc2nc(n1)NS(=O)(=O)c1cccc(c1)C(=O)N1CCN(Cc3ccnnc3)C[C@@H]1CO2 [Compound 287]		+ (+ is <300%)
Cc1cccc(C)c1-c1cc2nc(n1)NS(=O)(=O)c1cccc(c1)C(=O)N1CCN(Cc3ccn[nH]3)C[C@@H]1CO2 [Compound 288]		+ (+ is <300%)
Cc1cccc(C)c1-c1cc2nc(n1)NS(=O)(=O)c1cccc(c1)C(=O)N1CCN(C(=O)NCc3ccccc3)C[C@@H]1CO2 [Compound 289]		+ (+ is <300%)
Cc1cccc(C)c1-c1cc2nc(n1)NS(=O)(=O)c1cccc(c1)C(=O)N1CCN(C(=O)NC(C)(C)C)C[C@@H]1CO2 [Compound 291]		+++ (+++ is >60%)
Cc1cccc(C)c1-c1cc2nc(n1)NS(=O)(=O)c1cccc(c1)C(=O)N1CCN(C(=O)NC(C)C(C)C)C[C@@H]1CO2 (stereo partly shown) [Compound 292]		++ (++ is 30-60%)
Cc1cccc(C)c1-c1cc2nc(n1)NS(=O)(=O)c1cccc(c1)C(=O)N1CCCC1CO2 (stereo not shown) [Compound 301]		+ (+ is <300%)
Cc1cccc(C)c1-c1cc2nc(n1)NS(=O)(=O)c1cccc(c1)C(=O)N1CCN(C(=O)CCN3CCCC3)C(CO2)C1 (stereo not shown) [Compound 303]		+ (+ is <300%)
Cc1cccc(C)c1-c1cc2nc(n1)NS(=O)(=O)c1cccc(c1)C(=O)N1CCN(C(=O)CC(C)(C)C)C(CO2)C1 (stereo not shown) [Compound 304]		++ (++ is 30-60%)
Cc1cccc(C)c1-c1cc2nc(n1)NS(=O)(=O)c1cccc(c1)C(=O)N1CCN(C(=O)CN(C)C)CC1CO2 (stereo not shown) [Compound 305]		+ (+ is <300%)
Cc1cccc(C)c1-c1cc2nc(n1)NS(=O)(=O)c1cccc(c1)C(=O)N1CCN(C(=O)CCN3CCCC3=O)CC1CO2 (stereo not shown) [Compound 306]		+ (+ is <300%)

More lines, main results first:

EC50 [µM]	SMILES	Ent. A Max Activity (%)
1 to 3	Cc1cccc(C)c1-c1cc2nc(n1)NS(=O)(=O)c1cccc(c1)C(=O)N1CCN(CCC(C)C)C[C@@H]1CO2 [Compound 268]	+++ (+++ is >60%)
< 1	Cc1cccc(C)c1-c1cc2nc(n1)NS(=O)(=O)c1cccc(c1)C(=O)N1CCN(CC(C)C)C[C@@H]1CO2 [Compound 269]	+++ (+++ is >60%)
1 to 3	Cc1cccc(C)c1-c1cc2nc(n1)NS(=O)(=O)c1cccc(c1)C(=O)N1CCN(Cc3ccc(C#N)cc3)C[C@@H]1CO2 [Compound 270]	+++ (+++ is >60%)
< 1	Cc1cccc(C)c1-c1cc2nc(n1)NS(=O)(=O)c1cccc(c1)C(=O)N1CCN(Cc3ccccc3O)C[C@@H]1CO2 [Compound 271]	+++ (+++ is >60%)
3 to 30	Cc1cccc(C)c1-c1cc2nc(n1)NS(=O)(=O)c1cccc(c1)C(=O)N1CCN(Cc3cccc(O)c3)C[C@@H]1CO2 [Compound 272]	+++ (+++ is >60%)
1 to 3	Cc1cccc(C)c1-c1cc2nc(n1)NS(=O)(=O)c1cccc(c1)C(=O)N1CCN(Cc3ccc(O)cc3)C[C@@H]1CO2 [Compound 273]	++ (++ is 30-60%)
3 to 30	Cc1ccc(CN2CCN3C(=O)c4cccc(c4)S(=O)(=O)Nc4nc(cc(-c5c(C)cccc5C)n4)OC[C@H]3C2)cn1 [Compound 274]	+++ (+++ is >60%)
3 to 30	Cc1cccc(C)c1-c1cc2nc(n1)NS(=O)(=O)c1cccc(c1)C(=O)N1CCN(Cc3nccs3)C[C@@H]1CO2 [Compound 275]	+++ (+++ is >60%)
3 to 30	Cc1cccc(C)c1-c1cc2nc(n1)NS(=O)(=O)c1cccc(c1)C(=O)N1CCN(Cc3cccnc3)C[C@@H]1CO2 [Compound 282]	++ (++ is 30-60%)
1 to 3	Cc1cccc(C)c1-c1cc2nc(n1)NS(=O)(=O)c1cccc(c1)C(=O)N1CCN(C(=O)NC34CC5CC(CC(C5)C3)C4)C[C@@H]1CO2 [Compound 290]	++ (++ is 30-60%)
3 to 30	CC(=O)NCCN1CCN2C(=O)c3cccc(c3)S(=O)(=O)Nc3nc(cc(-c4c(C)cccc4C)n3)OC[C@H]2C1 [Compound 294]	++ (++ is 30-60%)
1 to 3	Cc1cccc(C)c1-c1cc2nc(n1)NS(=O)(=O)c1cccc(c1)C(=O)N1CCN(CC3CCOCC3)C[C@@H]1CO2 [Compound 295]	+++ (+++ is >60%)
< 1	Cc1cccc(C)c1-c1cc2nc(n1)NS(=O)(=O)c1cccc(c1)C(=O)N1CCN(CCCC(C)(C)C)C[C@@H]1CO2 [Compound 296]	+++ (+++ is >60%)
< 1	Cc1cccc(C)c1-c1cc2nc(n1)NS(=O)(=O)c1cccc(c1)C(=O)N1CCN(CC3CCCCC3)C[C@@H]1CO2 [Compound 297]	+++ (+++ is >60%)
< 1	Cc1cccc(C)c1-c1cc2nc(n1)NS(=O)(=O)c1cccc(c1)C(=O)N1CCN(CCc3ccccc3)C[C@@H]1CO2 [Compound 299]	++ (++ is 30-60%)
